In patent US20260049085A1, “CYCLIC COMPOUNDS AND METHODS OF USING SAME” (SCHRÖDINGER, INC., priority 2022, published 2026):

Each compound was assayed against T1, full-length MALT1 protein His-MALT1(1-824) (Homo sapiens, UniProt Q9UDY8) (assay: MALT1 protease assay (Ac-LRSR-AMC tetrapeptide substrate, fluorescence)). Conditions: 1 nM MALT1, 25 μM Ac-LRSR-AMC, 2 h pre-incubation, 8 hr incubation at RT.
T1 construct: full-length MALT1 protein His-MALT1(1-824); His (N); made in house; host or cells: baculovirus-infected insect cells
T1 sequence (Q9UDY8 1-824): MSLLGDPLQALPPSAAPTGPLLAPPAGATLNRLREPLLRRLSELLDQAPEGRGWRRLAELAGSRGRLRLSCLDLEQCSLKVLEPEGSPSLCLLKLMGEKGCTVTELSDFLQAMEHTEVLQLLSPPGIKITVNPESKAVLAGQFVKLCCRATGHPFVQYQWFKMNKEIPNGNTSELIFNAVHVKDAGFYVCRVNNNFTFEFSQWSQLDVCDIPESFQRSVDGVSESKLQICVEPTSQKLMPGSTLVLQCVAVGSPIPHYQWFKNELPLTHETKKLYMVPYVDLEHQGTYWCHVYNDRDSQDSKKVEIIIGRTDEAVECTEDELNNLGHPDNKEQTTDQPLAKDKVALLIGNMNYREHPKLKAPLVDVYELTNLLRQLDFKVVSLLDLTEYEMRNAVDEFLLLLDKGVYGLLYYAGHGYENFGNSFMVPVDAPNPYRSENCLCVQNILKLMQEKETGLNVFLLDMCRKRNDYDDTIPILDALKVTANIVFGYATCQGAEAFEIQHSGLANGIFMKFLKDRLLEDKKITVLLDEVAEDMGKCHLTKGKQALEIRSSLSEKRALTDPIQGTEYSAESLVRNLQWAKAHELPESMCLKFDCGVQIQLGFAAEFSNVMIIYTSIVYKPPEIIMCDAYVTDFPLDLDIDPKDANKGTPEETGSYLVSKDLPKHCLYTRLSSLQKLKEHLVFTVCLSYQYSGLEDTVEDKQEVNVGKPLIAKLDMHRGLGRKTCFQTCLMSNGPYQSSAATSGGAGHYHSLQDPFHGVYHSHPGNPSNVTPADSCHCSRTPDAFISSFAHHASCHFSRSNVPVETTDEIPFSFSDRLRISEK
Type: biochemical
Procedure: MALT1 protease activity was assessed in an in vitro assay using a tetrapeptide as substrate and full-length MALT1 protein His-MALT1(1-824) purified from baculovirus-infected insect cells.
The final assay buffer includes 1 nM of MALT1 full-length protein, 25 μM Ac-LRSR-AMC substrate, 50 mM Tris pH 7.5, 600 mM Sodium Citrate, 1 mM DTT, 1 mM EDTA, and 0.05% BSA in 384-well plate format using black microtiter square well plates (Optiplate 384-F, Perkin Elmer).
Test compounds were dissolved in 100% DMSO stock of 10 mM, with final DMSO concentration of 0.1%. Test compounds were pre-incubated with MALT1 protein for 2 h at room temperature. Substrate was added after the pre-incubation and fluorescence signal was measured using Envision at excitation 355 nm and emission 460 nm after 8 hr incubation at RT.
The fluorescence units were transformed to percentage of remaining activity by using the high control (HC, median of fluorescence signal from wells containing MALT1 protein, substrate, and DMSO) and low control (LC, median of fluorescence signal from wells with substrate only) with the formula below: […]
IC50 and Hill coefficients were obtained using Graph Pad Prism (Graph Pad software, Inc, USA) with non-linear regression analysis.

How did the IC50 turn out when C[C@]1(c2cnn(C3CC3)c2)C[C@@H](C(=O)Nc2cnc(OC(F)F)c(C#N)c2)c2cnc3cc(F)nn3c21 (single isomer, unassigned) [Example 75] was run?
Its IC50 is 100 to 1000 nM.

Cn1ccc([C@@]2(C)C[C@H](C(=O)Nc3cnc(-n4nccn4)c(Cl)c3)c3cnc4cc(Cl)nn4c32)n1 (single isomer, unassigned) [Example 76] was tested. Which IC50 did it give?
Its IC50 is under 10 nM.

With Cn1ccc([C@]2(C)C[C@@H](C(=O)Nc3cnc(-n4nccn4)c(Cl)c3)c3cnc4cc(Cl)nn4c32)n1 (single isomer, unassigned) [Example 77] as the compound, how does the IC50 read?
The IC50 was at least 1000 nM.

For Cn1ccc([C@]2(C)C[C@H](C(=O)Nc3cnc(-n4nccn4)c(Cl)c3)c3cnc4cc(Cl)nn4c32)n1 (single isomer, unassigned) [Example 78], which IC50 is on record?
The IC50 was 100 to 1000 nM.

With Cn1ccc([C@@]2(C)C[C@@H](C(=O)Nc3cnc(-n4nccn4)c(Cl)c3)c3cnc4cc(Cl)nn4c32)n1 (single isomer, unassigned) [Example 79] as the compound, how does the IC50 read?
The IC50 was 100 to 1000 nM.

How did the IC50 turn out when C[C@]1(c2cnn(C(F)F)c2)C[C@H](C(=O)Nc2cnc(-n3nccn3)c(C(F)(F)F)c2)c2cnc3cc(F)nn3c21 (single isomer, unassigned) [Example 80] was run?
Its IC50 is under 10 nM.

Which IC50 does the source give for C[C@@]1(c2cnn(C(F)F)c2)C[C@@H](C(=O)Nc2cnc(-n3nccn3)c(C(F)(F)F)c2)c2cnc3cc(F)nn3c21 (single isomer, unassigned) [Example 81] here?
Its IC50 is at least 1000 nM.

How did the IC50 turn out when C[C@@]1(c2cnn(C(F)F)c2)C[C@H](C(=O)Nc2cnc(-n3nccn3)c(C(F)(F)F)c2)c2cnc3cc(F)nn3c21 (single isomer, unassigned) [Example 82] was run?
The IC50 was 10 to 100 nM.

With C[C@]1(c2cnn(C(F)F)c2)CC(C(=O)Nc2cnc(-n3nccn3)c(C(F)(F)F)c2)c2cnc3cc(F)nn3c21 (single isomer, unassigned) [Example 83] as the compound, how does the IC50 read?
The IC50 was 100 to 1000 nM.

Which IC50 does the source give for C[C@]1(c2cnn(CC(F)(F)F)c2)C[C@H](C(=O)Nc2cnc(-n3nccn3)c(Cl)c2)c2cnc3cc(F)nn3c21 (single isomer, unassigned) [Example 84] here?
Its IC50 is under 10 nM.

With C[C@@]1(c2cnn(CC(F)(F)F)c2)C[C@@H](C(=O)Nc2cnc(-n3nccn3)c(Cl)c2)c2cnc3cc(F)nn3c21 (single isomer, unassigned) [Example 85] as the compound, how does the IC50 read?
Its IC50 is at least 1000 nM.

How did the IC50 turn out when C[C@@]1(c2cnn(CC(F)(F)F)c2)C[C@H](C(=O)Nc2cnc(-n3nccn3)c(Cl)c2)c2cnc3cc(F)nn3c21 (single isomer, unassigned) [Example 86] was run?
Its IC50 is 10 to 100 nM.

With C[C@]1(c2cnn(CC(F)(F)F)c2)C[C@@H](C(=O)Nc2cnc(-n3nccn3)c(Cl)c2)c2cnc3cc(F)nn3c21 (single isomer, unassigned) [Example 87] as the compound, how does the IC50 read?
The IC50 was 100 to 1000 nM.

Which IC50 does the source give for C[C@@]1(c2ccn(C(F)F)n2)C[C@@H](C(=O)Nc2cnc(-n3nccn3)c(Cl)c2)c2cnc3cc(F)nn3c21 (single isomer, unassigned) [Example 89] here?
Its IC50 is at least 1000 nM.

For C[C@@]1(c2ccn(C(F)F)n2)C[C@H](C(=O)Nc2cnc(-n3nccn3)c(Cl)c2)c2cnc3cc(F)nn3c21 (single isomer, unassigned) [Example 90], which IC50 is on record?
Its IC50 is 10 to 100 nM.

How did the IC50 turn out when C[C@]1(c2ccn(C(F)F)n2)C[C@@H](C(=O)Nc2cnc(-n3nccn3)c(Cl)c2)c2cnc3cc(F)nn3c21 (single isomer, unassigned) [Example 91] was run?
The IC50 was 100 to 1000 nM.

C[C@@]1(c2cnn(C(F)F)c2)C[C@@H](C(=O)Nc2cnc(OC(F)F)c(C#N)c2)c2cnc3cc(F)nn3c21 (single isomer, unassigned) [Example 93] was tested. Which IC50 did it give?
Its IC50 is at least 1000 nM.

Which IC50 does the source give for C[C@@]1(c2cnn(C(F)F)c2)C[C@H](C(=O)Nc2cnc(OC(F)F)c(C#N)c2)c2cnc3cc(F)nn3c21 (single isomer, unassigned) [Example 94] here?
Its IC50 is 10 to 100 nM.

For C[C@]1(c2cnn(C(F)F)c2)C[C@@H](C(=O)Nc2cnc(OC(F)F)c(C#N)c2)c2cnc3cc(F)nn3c21 (single isomer, unassigned) [Example 95], which IC50 is on record?
Its IC50 is 100 to 1000 nM.

With CC1(c2cnn(C(F)F)c2)CC(C(=O)Nc2cnc(N=S3(=O)CCC3)c(Cl)c2)c2cnc3cc(F)nn3c21 (single isomer, unassigned) [Example 96] as the compound, how does the IC50 read?
Its IC50 is 10 to 100 nM.

How did the IC50 turn out when CC1(c2cnn(C(F)F)c2)CC(C(=O)Nc2cnc(N=S3(=O)CCC3)c(Cl)c2)c2cnc3cc(F)nn3c21 (single isomer, unassigned) [Example 97] was run?
The IC50 was at least 1000 nM.

How did the IC50 turn out when C[C@]1(c2cnn(CC3CC3)c2)C[C@H](C(=O)Nc2cnc(-n3nccn3)c(Cl)c2)c2cnc3cc(F)nn3c21 (single isomer, unassigned) [Example 98] was run?
Its IC50 is under 10 nM.

For C[C@@]1(c2cnn(CC3CC3)c2)C[C@@H](C(=O)Nc2cnc(-n3nccn3)c(Cl)c2)c2cnc3cc(F)nn3c21 (single isomer, unassigned) [Example 99], which IC50 is on record?
The IC50 was at least 1000 nM.

With C[C@@]1(c2cnn(CC3CC3)c2)C[C@H](C(=O)Nc2cnc(-n3nccn3)c(Cl)c2)c2cnc3cc(F)nn3c21 (single isomer, unassigned) [Example 100] as the compound, how does the IC50 read?
Its IC50 is 10 to 100 nM.

How did the IC50 turn out when C[C@]1(c2cnn(CC3CC3)c2)C[C@@H](C(=O)Nc2cnc(-n3nccn3)c(Cl)c2)c2cnc3cc(F)nn3c21 (single isomer, unassigned) [Example 101] was run?
The IC50 was 100 to 1000 nM.

Which IC50 does the source give for C[C@]1(c2cnn(C(F)(F)F)c2)C[C@H](C(=O)Nc2cnc(-n3nccn3)c(Cl)c2)c2cnc3cc(F)nn3c21 (single isomer, unassigned) [Example 102] here?
The IC50 was 10 to 100 nM.

With C[C@@]1(c2cnn(C(F)(F)F)c2)C[C@@H](C(=O)Nc2cnc(-n3nccn3)c(Cl)c2)c2cnc3cc(F)nn3c21 (single isomer, unassigned) [Example 103] as the compound, how does the IC50 read?
The IC50 was at least 1000 nM.

For C[C@@]1(c2cnn(C(F)(F)F)c2)C[C@H](C(=O)Nc2cnc(-n3nccn3)c(Cl)c2)c2cnc3cc(F)nn3c21 (single isomer, unassigned) [Example 104], which IC50 is on record?
The IC50 was 100 to 1000 nM.

How did the IC50 turn out when C[C@]1(c2cnn(C(F)(F)F)c2)C[C@@H](C(=O)Nc2cnc(-n3nccn3)c(Cl)c2)c2cnc3cc(F)nn3c21 (single isomer, unassigned) [Example 105] was run?
Its IC50 is 100 to 1000 nM.

With CC1(c2cnn(C3(C)CC3)c2)CC(C(=O)Nc2cnc(-n3nccn3)c(Cl)c2)c2cnc3cc(F)nn3c21 (single isomer, unassigned) [Example 107] as the compound, how does the IC50 read?
Its IC50 is at least 1000 nM.

For CC1(n2cc([C@]3(C)C[C@H](C(=O)Nc4cnc(-n5nccn5)c(Cl)c4)c4cnc5cc(F)nn5c43)cn2)CC1 (single isomer, unassigned) [Example 108], which IC50 is on record?
The IC50 was 100 to 1000 nM.

Which IC50 does the source give for CC1(n2cc([C@@]3(C)C[C@@H](C(=O)Nc4cnc(-n5nccn5)c(Cl)c4)c4cnc5cc(F)nn5c43)cn2)CC1 (single isomer, unassigned) [Example 109] here?
Its IC50 is 100 to 1000 nM.

Which IC50 does the source give for C[C@@]1(c2ccn(C(F)F)n2)C[C@@H](C(=O)Nc2cnc(OC(F)F)c(C#N)c2)c2cnc3cc(F)nn3c21 (single isomer, unassigned) [Example 111] here?
Its IC50 is at least 1000 nM.

How did the IC50 turn out when C[C@@]1(c2ccn(C(F)F)n2)C[C@H](C(=O)Nc2cnc(OC(F)F)c(C#N)c2)c2cnc3cc(F)nn3c21 (single isomer, unassigned) [Example 112] was run?
The IC50 was 100 to 1000 nM.

C[C@]1(c2ccn(C(F)F)n2)C[C@@H](C(=O)Nc2cnc(OC(F)F)c(C#N)c2)c2cnc3cc(F)nn3c21 (single isomer, unassigned) [Example 113] was tested. Which IC50 did it give?
Its IC50 is 100 to 1000 nM.

With CC1(c2ccn(C(F)F)n2)CC(C(=O)Nc2cnc(-c3ncc(F)cn3)c(Cl)c2)c2cnc3cc(F)nn3c21 (single isomer, unassigned) [Example 114] as the compound, how does the IC50 read?
The IC50 was 10 to 100 nM.

How did the IC50 turn out when CC1(c2ccn(C(F)F)n2)CC(C(=O)Nc2cnc(-c3ncc(F)cn3)c(Cl)c2)c2cnc3cc(F)nn3c21 (single isomer, unassigned) [Example 115] was run?
The IC50 was 100 to 1000 nM.

Which IC50 does the source give for CC1(c2ccn(C(F)F)n2)CC(C(=O)Nc2cnc(-c3ncc(F)cn3)c(C(F)(F)F)c2)c2cnc3cc(F)nn3c21 (single isomer, unassigned) [Example 117] here?
The IC50 was 100 to 1000 nM.

How did the IC50 turn out when C[C@]1(c2cnn(C(F)F)c2)C[C@H](C(=O)Nc2cnc(-c3ncncc3F)c(C(F)(F)F)c2)c2cnc3cc(F)nn3c21 (single isomer, unassigned) [Example 118] was run?
The IC50 was 10 to 100 nM.
